{
  "source": "ChEMBL document CHEMBL6115017",
  "about": "“Discovery of DFV890, a Potent Sulfonimidamide-Containing NLRP3 Inflammasome Inhibitor” (J Med Chem, 2025)",
  "key": {"[1]": {"test": "Oral bioavailability in Sprague-Dawley rat at 5 mg/kg administered through oral gavage by LC-MS analysis", "assay_type": "ADME, organism-based", "settings": "in vivo"}, "[2]": {"test": "Oral bioavailability in Beagle dog at 2 mg/kg administrated through oral gavage by LC-MS analysis", "assay_type": "ADME, organism-based, Canis lupus familiaris", "settings": "in vivo"}, "Cytochrome P450 1A2 [3]": {"molecular_target": "T1, Cytochrome P450 1A2 (Homo sapiens, UniProt P05177)", "T1 sequence (P05177 whole entry)": "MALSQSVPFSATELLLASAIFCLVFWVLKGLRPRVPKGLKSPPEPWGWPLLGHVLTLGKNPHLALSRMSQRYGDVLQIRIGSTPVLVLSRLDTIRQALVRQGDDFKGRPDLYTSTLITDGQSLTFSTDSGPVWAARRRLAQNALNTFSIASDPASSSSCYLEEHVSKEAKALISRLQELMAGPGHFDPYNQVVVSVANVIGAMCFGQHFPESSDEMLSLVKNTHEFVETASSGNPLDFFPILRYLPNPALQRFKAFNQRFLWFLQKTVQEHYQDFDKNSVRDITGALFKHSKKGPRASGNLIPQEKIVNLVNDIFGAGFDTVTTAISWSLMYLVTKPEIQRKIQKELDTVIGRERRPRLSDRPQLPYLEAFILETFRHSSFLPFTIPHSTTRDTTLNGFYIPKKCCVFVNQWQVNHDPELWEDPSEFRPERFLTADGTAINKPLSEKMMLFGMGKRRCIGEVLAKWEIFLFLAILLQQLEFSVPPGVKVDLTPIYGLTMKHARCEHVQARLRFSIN", "test": "Inhibition of CYP1A2 (unknown origin) by time dependent inhibition assay", "assay_type": "ADME"}, "hERG": {"molecular_target": "hERG (Homo sapiens, UniProt Q12809)", "sequence (Q12809 whole entry)": "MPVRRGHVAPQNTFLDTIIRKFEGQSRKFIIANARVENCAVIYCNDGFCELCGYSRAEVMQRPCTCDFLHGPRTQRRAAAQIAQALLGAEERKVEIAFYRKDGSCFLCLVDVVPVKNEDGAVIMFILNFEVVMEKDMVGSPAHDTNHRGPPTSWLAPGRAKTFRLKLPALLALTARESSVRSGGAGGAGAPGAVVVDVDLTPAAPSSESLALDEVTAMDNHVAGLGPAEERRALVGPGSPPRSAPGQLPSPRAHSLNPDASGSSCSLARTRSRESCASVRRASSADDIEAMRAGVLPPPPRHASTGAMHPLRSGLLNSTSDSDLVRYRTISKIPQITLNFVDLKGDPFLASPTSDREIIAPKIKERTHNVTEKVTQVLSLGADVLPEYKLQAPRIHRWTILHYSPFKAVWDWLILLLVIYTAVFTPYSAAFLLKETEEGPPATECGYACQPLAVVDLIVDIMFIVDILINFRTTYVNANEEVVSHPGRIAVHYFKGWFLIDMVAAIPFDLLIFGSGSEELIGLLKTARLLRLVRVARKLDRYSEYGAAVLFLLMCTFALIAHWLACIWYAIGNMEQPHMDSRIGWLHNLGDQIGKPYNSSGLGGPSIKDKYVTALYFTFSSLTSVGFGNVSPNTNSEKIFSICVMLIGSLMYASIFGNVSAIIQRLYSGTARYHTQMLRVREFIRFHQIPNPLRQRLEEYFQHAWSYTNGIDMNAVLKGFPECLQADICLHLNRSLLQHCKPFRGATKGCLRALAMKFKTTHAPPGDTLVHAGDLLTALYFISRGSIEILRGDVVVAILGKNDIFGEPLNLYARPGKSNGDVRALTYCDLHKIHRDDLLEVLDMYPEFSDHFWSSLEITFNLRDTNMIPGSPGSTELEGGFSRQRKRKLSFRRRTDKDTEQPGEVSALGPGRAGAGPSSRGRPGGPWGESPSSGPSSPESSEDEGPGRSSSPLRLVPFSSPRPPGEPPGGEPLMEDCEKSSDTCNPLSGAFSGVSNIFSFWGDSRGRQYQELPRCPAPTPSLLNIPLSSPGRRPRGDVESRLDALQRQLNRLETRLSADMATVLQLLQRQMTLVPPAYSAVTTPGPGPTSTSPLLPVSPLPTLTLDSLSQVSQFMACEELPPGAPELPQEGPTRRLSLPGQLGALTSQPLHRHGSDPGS", "test": "Inhibition of hERG at 30 uM relative to control", "assay_type": "toxicity"}, "[4]": {"test": "Volume of distribution at steady state in Sprague-Dawley rat at 5 mg/kg, po by LC-MS analysis", "assay_type": "ADME, organism-based", "settings": "in vivo"}, "[5]": {"test": "Oral bioavailability in Cynomolgus monkey at 5 mg/kg administrated through oral gavage and 2 mg/kg, iv by LC-MS analysis", "assay_type": "ADME, organism-based, Macaca fascicularis", "settings": "in vivo"}, "[6]": {"test": "Volume of distribution at steady state in Cynomolgus monkey at 5 mg/kg, po and 2 mg/kg, iv by LC-MS analysis", "assay_type": "ADME, organism-based, Macaca fascicularis", "settings": "in vivo"}, "[7]": {"test": "Half life in Sprague-Dawley rat at 5 mg/kg, po by LC-MS analysis", "assay_type": "ADME, organism-based", "settings": "in vivo"}, "Cytochrome P450 2B6 [8]": {"molecular_target": "T2, Cytochrome P450 2B6 (Homo sapiens, UniProt P20813)", "T2 sequence (P20813 whole entry)": "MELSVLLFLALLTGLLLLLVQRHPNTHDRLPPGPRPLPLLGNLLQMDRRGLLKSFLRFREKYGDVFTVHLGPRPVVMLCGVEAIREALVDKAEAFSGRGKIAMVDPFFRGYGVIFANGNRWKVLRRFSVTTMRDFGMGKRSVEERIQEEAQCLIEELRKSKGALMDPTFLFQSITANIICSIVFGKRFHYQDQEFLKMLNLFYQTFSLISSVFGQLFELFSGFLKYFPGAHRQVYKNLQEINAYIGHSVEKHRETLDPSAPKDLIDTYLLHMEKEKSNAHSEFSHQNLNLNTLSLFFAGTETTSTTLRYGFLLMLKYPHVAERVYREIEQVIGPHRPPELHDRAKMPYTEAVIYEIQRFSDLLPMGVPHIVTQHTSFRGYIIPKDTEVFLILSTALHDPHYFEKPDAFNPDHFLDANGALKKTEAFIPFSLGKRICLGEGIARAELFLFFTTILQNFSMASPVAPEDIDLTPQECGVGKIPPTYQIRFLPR", "test": "Inhibition of CYP2B6 (unknown origin) by time dependent inhibition assay", "assay_type": "ADME"}, "[9]": {"test": "Metabolic stability in Cynomolgus monkey hepatocytes assessed as intrinsic clearance measured per 10^6 cells", "assay_type": "ADME, cell-based, Macaca fascicularis, Hepatocyte", "settings": "read-out: CLH"}, "[10]": {"test": "Fraction unbound in C57 BL6 mouse plasma", "assay_type": "ADME, cell-free"}, "[11]": {"test": "Oral bioavailability in C57 BL6 mouse at 10 mg/kg administrated through oral gavage by LC-MS analysis", "assay_type": "ADME, organism-based", "settings": "in vivo"}, "Macrophage": {"tested_on": "Macrophage", "test": "Inhibition of pyrin inflammasome activation in immortalized NLRP3-KO mouse macrophages assessed as inhibition of TcdB-induced IL-1beta release pretreated for 1 hr followed by induced with TcdB measured after 6 hrs by HTRF analysis", "assay_type": "cell-based", "settings": "time 7.0 hrs"}, "Cytochrome P450 1A2 [12]": {"molecular_target": "T1, Cytochrome P450 1A2", "test": "Inhibition of CYP1A2 (unknown origin)", "assay_type": "ADME"}, "[13]": {"test": "Cytotoxicity against mouse CT26 cells measured after 72 hrs", "assay_type": "toxicity, cell-based"}, "[14]": {"test": "Metabolic stability in rat hepatocytes assessed as intrinsic clearance measured per 10^6 cells", "assay_type": "ADME, cell-based, Hepatocyte", "settings": "read-out: CLH"}, "[15]": {"test": "Metabolic stability in human hepatocytes assessed as intrinsic clearance measured per 10^6 cells", "assay_type": "ADME, cell-based, Hepatocyte", "settings": "read-out: CLH"}, "[16]": {"test": "Thermodynamic solubility in PBS at pH 1", "assay_type": "physicochemical", "settings": "read-out: Therm_solubility"}, "THP-1": {"tested_on": "THP-1", "test": "Antagonist activity against […] in PMA-primed human THP-1 cells assessed as inhibition of PrgI-induced IL-1beta release measured pretreated for 1 hr followed by induced with LFn-PrgI measured after 2 hr incubation by HTRF analysis", "assay_type": "cell-based", "settings": "time 3.0 hrs"}, "[17]": {"test": "Cmax in Sprague-Dawley rat at 5 mg/kg, po by LC-MS analysis", "assay_type": "ADME, organism-based", "settings": "in vivo"}, "[18]": {"test": "Fraction unbound in Beagle dog […] plasma", "assay_type": "ADME, cell-free, Canis lupus familiaris"}, "Cytochrome P450 2B6 [19]": {"molecular_target": "T2, Cytochrome P450 2B6", "test": "Inhibition of CYP2B6 (unknown origin)", "assay_type": "ADME"}, "Mus musculus": {"tested_on": "Mus musculus", "test": "In vivo anti-inflammatory activity against MSU crystal-induced gouty arthritis Balb/c mouse model assessed as reduction in neutrophil recruitment in at 0.1 to 50 mg/kg, po single dose", "assay_type": "functional, organism-based", "settings": "dose 0.1-50 mg/kg"}, "Cytochrome P450 3A5 [20]": {"molecular_target": "T3, Cytochrome P450 3A5 (Homo sapiens, UniProt P20815)", "T3 sequence (P20815 whole entry)": "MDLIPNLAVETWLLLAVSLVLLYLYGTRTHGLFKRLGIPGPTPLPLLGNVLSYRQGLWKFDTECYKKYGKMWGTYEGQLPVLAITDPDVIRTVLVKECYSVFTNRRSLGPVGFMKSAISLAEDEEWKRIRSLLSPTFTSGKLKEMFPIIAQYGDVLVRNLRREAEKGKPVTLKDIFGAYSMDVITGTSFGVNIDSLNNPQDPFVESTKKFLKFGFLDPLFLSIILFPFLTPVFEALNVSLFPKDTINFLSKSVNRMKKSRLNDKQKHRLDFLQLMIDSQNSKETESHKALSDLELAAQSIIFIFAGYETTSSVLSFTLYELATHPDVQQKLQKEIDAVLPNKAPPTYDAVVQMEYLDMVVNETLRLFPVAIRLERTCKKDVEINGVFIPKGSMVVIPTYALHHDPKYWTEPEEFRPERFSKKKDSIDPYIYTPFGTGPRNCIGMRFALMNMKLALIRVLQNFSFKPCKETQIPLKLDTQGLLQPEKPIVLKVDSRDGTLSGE", "test": "Inhibition of CYP3A5 (unknown origin) by time dependent inhibition assay", "assay_type": "ADME"}, "Cytochrome P450 3A5 [21]": {"molecular_target": "T3, Cytochrome P450 3A5", "test": "Inhibition of CYP3A5 (unknown origin)", "assay_type": "ADME"}, "[22]": {"test": "Thermodynamic solubility in PBS at pH 5", "assay_type": "physicochemical", "settings": "read-out: Therm_solubility"}, "[23]": {"test": "Apparent permeability of the compound across apical to basolateral side in MDCK", "assay_type": "ADME, cell-based, Canis lupus familiaris", "settings": "dog"}, "[24]": {"test": "Mutagenicity in Salmonella typhimurium by AMES test", "assay_type": "toxicity", "settings": "salmonella enterica subsp. enterica serovar typhimurium"}, "[25]": {"test": "Cytotoxicity against human HEK293 cells measured after 72 hrs", "assay_type": "toxicity, cell-based"}, "[26]": {"test": "Cmax in Cynomolgus monkey at 5 mg/kg, po by LC-MS analysis", "assay_type": "ADME, organism-based, Macaca fascicularis", "settings": "in vivo"}, "[27]": {"molecular_target": "Nucleotide-binding oligomerization domain-containing protein 2 (Homo sapiens) (UniProt Q9HC29)", "sequence (Q9HC29 whole entry, the tested form may be a part)": "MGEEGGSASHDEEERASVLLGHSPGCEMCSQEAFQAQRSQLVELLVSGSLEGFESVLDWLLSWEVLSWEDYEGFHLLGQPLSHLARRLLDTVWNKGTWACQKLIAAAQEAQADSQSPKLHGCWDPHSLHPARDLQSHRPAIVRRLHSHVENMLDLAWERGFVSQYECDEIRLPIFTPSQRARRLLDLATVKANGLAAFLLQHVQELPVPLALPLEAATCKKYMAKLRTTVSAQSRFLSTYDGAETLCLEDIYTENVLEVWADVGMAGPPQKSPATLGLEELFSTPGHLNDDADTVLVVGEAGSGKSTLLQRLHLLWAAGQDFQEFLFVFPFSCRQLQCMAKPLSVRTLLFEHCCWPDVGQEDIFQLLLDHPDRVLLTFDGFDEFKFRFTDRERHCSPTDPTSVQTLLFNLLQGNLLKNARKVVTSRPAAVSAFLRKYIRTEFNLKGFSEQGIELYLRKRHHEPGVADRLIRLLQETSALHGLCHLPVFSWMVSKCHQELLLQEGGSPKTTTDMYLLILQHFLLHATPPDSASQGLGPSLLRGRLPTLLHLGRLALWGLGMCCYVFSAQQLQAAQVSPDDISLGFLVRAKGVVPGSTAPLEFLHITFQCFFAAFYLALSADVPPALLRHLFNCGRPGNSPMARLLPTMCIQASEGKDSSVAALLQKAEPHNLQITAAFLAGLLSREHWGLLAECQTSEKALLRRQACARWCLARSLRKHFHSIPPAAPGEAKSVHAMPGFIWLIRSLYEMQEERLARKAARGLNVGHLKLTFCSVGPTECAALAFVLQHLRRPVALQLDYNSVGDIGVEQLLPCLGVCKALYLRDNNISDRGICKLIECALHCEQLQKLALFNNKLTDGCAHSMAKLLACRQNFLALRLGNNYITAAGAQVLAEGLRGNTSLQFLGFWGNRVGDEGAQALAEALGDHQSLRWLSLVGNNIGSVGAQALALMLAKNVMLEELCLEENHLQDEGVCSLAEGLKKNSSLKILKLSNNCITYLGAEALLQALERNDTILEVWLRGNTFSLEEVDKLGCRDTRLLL", "test": "Inhibition of human NOD2 inflammasome activation expressed in […] cells assessed as inhibition of L18-MDP induced NF-kappaB activation by measuring SEAP activity pretreated for 1 hr followed by induced with L18-MDP measured after 18 hrs by Spectrophotometric analysis", "assay_type": "cell-based", "settings": "HEK, time 19.0 hrs"}},
  "note": "Calls of active or inactive are those of the source. No cut-off for these calls is given here.",
  "data": [
    {"compound": "CC(C)(O)c1ncc([S@](N)(=O)=NC(=O)Nc2c3c(cc4c2CCC4)CCC3)s1", "values": [
      {"measurement": "bioavailability", "setting": "[1]", "result": 82, "unit": "%"},
      {"measurement": "bioavailability", "setting": "[2]", "result": 97, "unit": "%"},
      {"measurement": "TDI", "setting": "Cytochrome P450 1A2 [3]", "result": "Not_active"},
      {"measurement": "inhibition at 30 µM", "setting": "hERG", "result": 8, "unit": "%"},
      {"measurement": "Vdss", "setting": "[4]", "result": 0.188, "unit": "L/kg"},
      {"measurement": "bioavailability", "setting": "[5]", "result": 83, "unit": "%"},
      {"measurement": "Vdss", "setting": "[6]", "result": 0.084, "unit": "L/kg"},
      {"measurement": "half-life", "setting": "[7]", "result": 2.81, "unit": "h"},
      {"measurement": "TDI", "setting": "Cytochrome P450 2B6 [8]", "result": "Not_active"},
      {"measurement": "hepatocyte CLint", "setting": "[9]", "result": 4.2, "unit": "µL/min/1e6 cells"},
      {"measurement": "fraction unbound", "setting": "[10]", "result": 0.015},
      {"measurement": "bioavailability", "setting": "[11]", "result": 61, "unit": "%"},
      {"measurement": "Activity", "setting": "Macrophage", "result": "inactive"},
      {"measurement": "IC50", "setting": "Cytochrome P450 1A2 [12]", "result": "> 60", "unit": "µM"},
      {"measurement": "EC50 at 72 h", "setting": "[13]", "result": "> 100", "unit": "µM"},
      {"measurement": "hepatocyte CLint", "setting": "[14]", "result": 7.5, "unit": "µL/min/1e6 cells"},
      {"measurement": "hepatocyte CLint", "setting": "[15]", "result": 8.4, "unit": "µL/min/1e6 cells"},
      {"measurement": "solubility thermodynamic", "setting": "[16]", "result": 7.4, "unit": "µg/mL"},
      {"measurement": "Activity", "setting": "THP-1", "result": "inactive"},
      {"measurement": "Cmax", "setting": "[17]", "result": 8860, "unit": "ng/mL"},
      {"measurement": "fraction unbound", "setting": "[18]", "result": 0.009},
      {"measurement": "IC50", "setting": "Cytochrome P450 2B6 [19]", "result": "> 60", "unit": "µM"},
      {"measurement": "Activity", "setting": "Mus musculus", "result": "Active"},
      {"measurement": "TDI", "setting": "Cytochrome P450 3A5 [20]", "result": "Not_active"},
      {"measurement": "IC50", "setting": "Cytochrome P450 3A5 [21]", "result": "> 60", "unit": "µM"},
      {"measurement": "solubility thermodynamic", "setting": "[22]", "result": 9.1, "unit": "µg/mL"},
      {"measurement": "Papp A→B", "setting": "[23]", "result": 8.2, "unit": "×10⁻⁶ cm/s"},
      {"measurement": "Activity", "setting": "[24]", "result": "Non-toxic"},
      {"measurement": "EC50 at 72 h", "setting": "[25]", "result": "> 100", "unit": "µM"},
      {"measurement": "Cmax", "setting": "[26]", "result": 21500, "unit": "ng/mL"},
      {"measurement": "Activity", "setting": "[27]", "result": "inactive"}
    ]}
  ]
}
